In patent US9416181B2, “Compositions for cell culture and methods of using the same” (AbbVie Inc., priority 2013, dated 2016):

Experiments:
Assay type in all cases: cell-based, Chinese Hamster
[1] = tested on: Cell Line 1 (CHO) expressing Antibody 1; experiment: Cell culture performance (cell growth, viability, titer), Cell Line 1 shake flask fed-batch culture; settings: for cell growth profile vs unsupplemented control: 3 concentrations in CDFM up to 0.5 g/L (genistein) or 1 g/L (rutin, naringin); for cell growth profile vs unsupplemented control / relative harvest titer vs unsupplemented control: shake flask
Method: (§1) A recombinant Chinese Hamster Ovary (CHO) cell line (Cell Line 1) expressing a humanized monoclonal antibody (Antibody 1) was evaluated in 2 different cultures vessels (shaker flasks and 3 L laboratory-scale bioreactors). The cell line was of CHO DUX-B11 origin based on a DHFR (dihydrofolate reductase) expression system and cultured in a chemically defined basal media, and fed periodically with a chemically-defined feed media (CDFM). The media utilized throughout all of the experiments were chemically-defined, and both animal-component free, and protein-free. Each of the respective media were supplemented as needed with selected bioflavonoids to evaluate for their potential impact on the resulting acidic species profile. In preparation of the cultures, the cell lines were serially expanded through separate seed train inoculums to generate enough cells for inoculation. Process conditions utilized during the cultures were slightly different depending on the culture scale, but similar within each scale to the respective non-bioflavonoid supplemented control conditions. All bioflavonoids utilized were purchased from Sigma-Aldrich (St. Louis, Mo.).
Viable cell density (VCD) and cell viability values were measured through trypan blue exclusion via Cedex automated cell counters (Roche Applied Science, Indianapolis, Ind.), glucose and lactate values were measured with a ABL-805 (Radiometer Medical, Denmark) blood gas analyzer. Offline pH, dissolved oxygen (DO), and pCO2 measurements were performed as needed with an ABL-805 (Radiometer Medical, Denmark) blood gas analyzer. Osmolality was measured as needed on a Multi-Osmette 2430 osmometer (Precision Systems, Natick, Mass.).
Antibody titers were measured from crude cell culture harvests on a Poros A™ (Life Technologies, Carlsbad, Calif.) affinity column using an HPLC system operating with a low pH, step elution gradient with detection at 280 nm. Absolute concentrations were assigned with respect to reference standard calibration curves.
(§2) In this Example, EGCG was added into the feed (cell culture medium) at the concentration range of 5 mg/L (low), 20 mg/L (mid) and 50 mg/L (high) in a shaker experiment to determine the impact of EGCG on product quality of a humanized monoclonal antibody (Antibody 1). Detailed cell culture conditions are as described in Table 1.
(§3) However, it was not clear whether or not additional bioflavonoids would also have the same effects. To evaluate the impact of alternative bioflavonoids, fed-batch shake flask cultures were initiated with CDFM supplemented with 3 different concentrations of genistein, rutin, and naringin, in addition to EGCG. Cell growth, viability, as well as titers and acidic species variants were measured.
(§4) To evaluate the impact of other bioflavonoids, fed-batch shake flask cultures were initiated with CDFM supplemented with multiple concentrations of rutin. Cell growth, viability, as well as titers and acidic species variants were measured and shown in FIGS. 14 and 15, respectively.

[2] = tested on: Cell Line 1 (CHO) expressing Antibody 1; experiment: Acidic species variants (WCX-10) of Antibody 1, Cell Line 1 shake flask fed-batch culture; settings: shake flask
Method: as §1
(§5) Samples were analyzed using an HPLC system equipped with a ProPac WCX-10 analytical column (Thermo Scientific, Sunnyvale, Calif.). Approximately 100 μg of sample was loaded in 6% Buffer B (10 mM sodium phosphate, 500 mM NaCl, pH 5.5) and 94% Buffer A (10 mM sodium phosphate, pH 7.5). The column was run at a flow rate of 1.0 mL/min. The protein was eluted from the column by increasing the buffer B composition from 6% to 16% over 20 minutes. The protein peaks were measured using UV absorbance at 280 nm as the peaks eluted from the column. The column was regenerated using 100% buffer B followed be a re-equilibration period using initial condition before the injection of the next sample. Peaks eluting before the main peak were termed “acidic peaks” and peaks eluting after the main peak were called “basic peaks” (FIG. 2).
as §2, §3
(§6) Charge Heterogeneity via Weak Cation Exchange Chromatography-Samples were analyzed using an HPLC system equipped with a ProPac WCX-10 analytical column (Thermo Scientific, Sunnyvale, Calif.). Approximately 100 μg of sample was loaded in 6% Buffer B (10 mM sodium phosphate, 500 mM NaCl, pH 5.5) and 94% Buffer A (10 mM sodium phosphate, pH 7.5). The column was run at a flow rate of 1.0 mL/min. The protein was eluted from the column by increasing the buffer B composition from 6% to 16% over 20 minutes. The protein peaks were measured using UV absorbance at 280 nm as the peaks eluted from the column. The column was regenerated using 100% buffer B followed be a re-equilibration period using initial condition before the injection of the next sample. Peaks eluting before the main peak were termed ‘acidic peaks’ and peaks eluting after the main peak were called ‘basic peaks’ (FIG. 2).
as §4

[3] = tested on: Cell Line 4 (CHO) expressing DVD2; experiment: Acidic species variants (WCX-10), Cell Line 4 shake flask culture
Method: (§7) Four different recombinant Chinese Hamster Ovary (CHO) cell lines expressing four different recombinant glycoproteins were evaluated in either shaker flask culture, or 3 L laboratory scale bioreactors. Cell Line 1 was genetically engineered to express Antibody 1, Cell Line 2 was genetically engineered to express Antibody 2, Cell Line 3 was genetically engineered to express dual variable domain immunoglobulin 1 (DVD1) and Cell Line 4 was genetically engineered to express dual variable domain immunoglobulin 2 (DVD2).
as §6, with “The column was regenerated using 100% buffer B followed be a re-equilibration period using initial condition before the injection of the next sample. Peaks eluting before the main peak were termed ‘acidic peaks’ and peaks eluting after the main peak were called ‘basic peaks’ (FIG. 2).” left out
as §4

[4] = tested on: Cell Line 1 (CHO) expressing Antibody 1; experiment: Acidic species variants (WCX-10) of Antibody 1, Cell Line 1 3 L bioreactor fed-batch culture; settings: 0.1 g/L in CDFM, Day 15 harvest
Method: as §1, §5
In the next experiment, lab-scale bioreactors were used to (1) confirm the shaker experiment results and (2) to determine whether higher concentration range of EGCG is suitable for supplementing into cell culture. EGCG was added to the feed of the batch culture at the concentrations of 20 mg/L (mid), 50 mg/L (high) and 125 mg/L (high+) and 250 mg/L (high++) in this reactor experiment.
Cell Line 1 was evaluated in larger-scale feed batch cultures with the feed media supplemented with various bioflavonoids. […] By contrast, cell growth performance was slightly different for the 0.1 g/L EGCG supplemented condition. […] However, the cell viability remained high at 0.1 g/L EGCG. All cultures were successfully harvested on Day 15 post-inoculation. The harvest titers measured from the evaluated cultures were similar.
Cell Line 1 was also evaluated in laboratory-scale fedbatch cultures with the feed media supplemented with various bioflavonoids. […] Cell growth performance was slightly different however with the 0.1 g/L EGCG supplemented condition. […] All cultures were able to be successfully harvested on Day 15 post-inoculation.

[5] = tested on: Cell Line 4 (CHO) expressing DVD2
Method: as §7
Viable cell density (VCD) and cell viability values were measured through trypan blue exclusion via Cedex automated cell counters (Roche Applied Science, Indianapolis, Ind.), glucose and lactate values were measured with a ABL-805 (Radiometer Medical, Denmark) blood gas analyzer. Offline pH, dissolved oxygen (DO), and pCO2 (Dissolved carbon dioxide) measurements were performed as needed with an ABL-805 (Radiometer Medical, Denmark) blood gas analyzer. Osmolality was measured as needed on a Multi-Osmette 2430 osmometer (Precision Systems, Natick, Mass.).
Protein A Affinity Chromatography-Antibody titers were measured from crude cell culture harvests on a Poros ATM (Life Technologies, Carlsbad, Calif.) affinity column using an HPLC system operating with a low pH, step elution gradient with detection at 280 nm. […]

In the case of `C[C@@H]1O[C@@H](O[C@H]2[C@H](Oc3cc(O)c4c(c3)O[C@H](c3ccc(O)cc3)CC4=O)O[C@H](CO)[C@@H](O)[C@@H]2O)[C@H](O)[C@H](O)[C@H]1O` [naringin], the “cell growth profile vs unsupplemented control” value [1] is reported as “lower than the unsupplemented control condition”.
`C[C@@H]1O[C@@H](OC[C@H]2O[C@@H](Oc3c(-c4ccc(O)c(O)c4)oc4cc(O)cc(O)c4c3=O)[C@H](O)[C@@H](O)[C@@H]2O)[C@H](O)[C@H](O)[C@H]1O` [rutin] was tested, and the “ratio of acidic region to unsupplemented control” value (shortened to “ratio of acidic region”) ([2]; 0.1 g/L in CDFM) was 0.97, the “ratio of acidic region” value ([2]; 1 g/L in CDFM) was 0.65 and the “ratio of acidic region” value ([3]; 0.1 g/L in CDFM) was 0.75. The “ratio of acidic region” value ([3]; 1 g/L in CDFM) was 0.69, the “concentration above which peak viable cell density dropped lower than unsupplemented control” value [1] was “higher than 0.05 g/L” and the “relative harvest titer vs unsupplemented control” value (“relative harvest titer” for short) ([1]; 0.01 g/L in CDFM) was 0.98. The “relative harvest titer” value ([1]; 0.1 g/L in CDFM) was 0.93, the “relative harvest titer” value ([1]; 1 g/L in CDFM, statistically significant) was 0.78 and the “drop in harvest titer” value ([1]; CDFM supplemented to 1 g/L, Cell Line 1) was “at most 22%”. For the same compound, the harvest cell viability ([1]; Chinese hamster, 1 g/L) was 76%, the “drop in absolute acidic species percentage points” value ([4]; 3 L bioreactor) was 5% and the “relative total AR (ratio to Day 8 value of unsupplemented control)” value ([4]; bioreactor) was 1.00. For the same compound, the “concentration above which peak viable cell density dropped lower than unsupplemented control” value [5] was > 100 µg/mL and the “increase in harvest titer” value ([5]; CDFM supplemented to 1 g/L, Cell Line 4) was 9%.
With `O=c1c(-c2ccc(O)cc2)coc2cc(O)cc(O)c12` [genistein] the “cell growth profile vs unsupplemented control” value [1] was “lower than the unsupplemented control condition”.
